Experiments:
[1] = system: IMR90 cells; test: CLS in human cells, PrestoBlue outgrowth assay (IMR90); assay type: cell-based
Experimental: (§1) Human embryonic kidney 293 (HEK293) cells (ATCC, Manassas, Virginia, United States of America), lung epithelial (A549) cells (ATCC, Manassas, Virginia, United States of America) and fibroblast (IMR90) cells (ATCC, Manassas, Virginia, United States of America) were cultured in the standard D10 medium, consisting of high-glucose DMEM (HyClone, Cytiva, Marlborough, Massachusetts, USA) supplemented with 10% Fetal Bovine Serum (FBS) (Gibco™, ThermoFisher Scientific, Waltham, Massachusetts, USA) and 1% Penicillin Streptomycin Solution (Gibco™, ThermoFisher Scientific, Waltham, Massachusetts, USA). All cells were cultured in a humidified incubator with 5% CO2 at 37° C.
The seeding, washing and trypsinization process was performed similarly to that for the crystal violet assay. 80,000 cells were seeded in a 96-well culture plate with or without compound treatment. […] After one day of growth in a 37° C. incubator with 5% CO2, the cell number was assessed with PrestoBlue™ Cell Viability Reagent (Invitrogen™, Waltham, Massachusetts, USA) according to the manufacturer's protocol. […] After incubation in a 37° C. incubator with 5% CO2 for 3 to 4 hours, reading was taken with a BioTek Synergy MX microplate reader (BioTek, Winooski, Vermont, United States) at excitation and emission wavelengths of 560 nm and 590 nm, respectively. […]

[2] = system: HEK293 cell line; test: CLS in human cells using crystal violet outgrowth assay; assay type: cell-based; conditions: Day 4 culture (FIG. 18A); seven days of outgrowth
Experimental: as §1
80,000 cells were seeded in a 96-well culture plate with or without compound treatment. On Day 4, Day 6, and Day 8 after seeding, floating dead cells were aspirated with exhausted D10 medium. Then, attached cells were gently washed with 1×PBS to remove D10 medium residue and treated with 0.2 mL of 0.25% trypsin. Cells were gently mixed by pipetting and a 2% aliquot (4 μL) was transferred to 6-well experiment plates with fresh D10 medium. […]
In this approach, an outgrowth assay was used to determine the number of live cells in the 6-well experiment plate using crystal violet staining. […] These live cells were then stained with crystal violet dye and assessed qualitatively.

[3] = system: CEN.PK113-7D snflΔ deletion strain; test: Growth sensitivity of SNFl gene deletion strain; assay type: cell-based, Saccharomyces cerevisiae; conditions: different concentrations; compared to wild-type strain
Excerpt: The prototrophic wild-type Saccharomyces cerevisiae CEN.PK113-7D yeast strain genetic background (Euroscarf, Köhlerweg, Oberursel, Germany), and the Saccharomyces cerevisiae BY4743 strain (Euroscarf, Köhlerweg, Oberursel, Germany) were used. The CEN.PK113-7D snflΔ deletion strain was constructed. The standard rich Yeast-Extract Peptone Dextrose (YPD) medium (1% w/v Bacto yeast extract, 2% w/v Bacto peptone, and 2% w/v glucose) (BD, Franklin Lakes, New Jersey, United States of America), YPD agar (2.5% w/v Bacto agar) (BD, Franklin Lakes, New Jersey, United States of America), and synthetic defined (SD) medium (BD, Franklin Lakes, New Jersey, United States of America) used here contained 6.7 g/L Difco™ Yeast Nitrogen Base (without amino acids and with ammonium sulfate) (BD, Franklin Lakes, New Jersey, United States) and 2% w/v glucose. Rapamycin (Enzo Life Sciences, Farmingdale, New York, United States) stock solution was prepared in dimethyl sulfoxide (DMSO) (Sigma-Aldrich, St. Louis, Missouri, United States of America). […]

## OC[C@H]1O[C@H](CO)[C@@H](O)[C@@H]1O [2,5-AM, 2,5-anhydro-D-mannitol]
[1]; 2.5 mM
  more surviving cells compared to the untreated group: 59.05%
[1]; 5 mM
  more viable cells compared to the untreated group: 59.89%
[2]
  cellular lifespan (crystal violet, qualitative): able to increase cellular lifespan
[3]
  growth of snflΔ deletion strain: inhibited the growth of snflΔ deletion strain compared to wild-type strain
